Numbers after ± are expanded uncertainties.
Assay: cn = amount concentration of the nth substance listed, in mol/dm3
Conditions: 101 kPa, Liquid; for viscosity: Concentric cylinders viscometry, c1 = 0.025; for mass density: Vibrating tube method

SMILES | viscosity (293.15 K) [mPa·s] | viscosity (298.15 K) [mPa·s] | viscosity (303.15 K) [mPa·s] | mass density (298.15 K, c1 = 0.2091) [kg/m3] | mass density (298.15 K, c1 = 0.5066) [kg/m3] | mass density (298.15 K, c1 = 1.013) [kg/m3] | mass density (298.15 K, c1 = 1.503) [kg/m3] | mass density (298.15 K, c1 = 1.974) [kg/m3] | mass density (298.15 K, c1 = 2.45) [kg/m3]
NCC(=O)NCC(=O)O [glycylglycine] + O | 1.019 ± 0.0071 | 0.9026 ± 0.0067 | 0.8068 ± 0.0064 | – | – | – | – | – | –
[Cl-].[Na+] [sodium chloride] + O | – | – | – | 1005.46 ± 0.056 | 1015.26 ± 0.065 | 1034.19 ± 0.085 | 1049.73 ± 0.11 | 1074.45 ± 0.15 | 1088.01 ± 0.19
